For orientation: Kd means the free concentration of one partner at which half of the binding sites on the other are occupied at equilibrium, for simple one-to-one binding. A lower Kd goes with tighter binding.

The test can be described thus: thermodynamic (Steady State Affinity) binding analysis: A subset of compounds was further characterized to determine dissociation constants using thermodynamic (Steady State Affinity) binding analysis.
`CO[C@H]1[C@@H](O)[C@H](COP(=O)(O)O)O[C@@H]1n1c[n+](CCOc2ccc(Cl)cc2)c2c([O-])nc(N)nc21` gave a Kd of 160 nM. In other words, the sub-micromolar range.

For the compound `Nc1nc([O-])c2c(n1)n([C@H]1O[C@@H](COP(=O)(O)O)[C@H](O)[C@@H]1O)c[n+]2Cc1cccc(Oc2ccccc2)c1`, the Kd was determined as 220 nM.

Compound `Nc1nc([O-])c2c(n1)n([C@H]1O[C@@H](COP(=O)(O)O)[C@H](O)[C@@H]1O)c[n+]2Cc1ccc(-c2ccccc2)c(Cl)c1` returned a Kd of 110 nM.

Consider `Nc1nc([O-])c2c(n1)n([C@H]1O[C@@H](COP(=O)(O)O)[C@H](O)[C@@H]1O)c[n+]2Cc1ccc(-c2ccccc2F)cc1`, for which the Kd was 410 nM.

In turn, `Nc1nc([O-])c2c(n1)n([C@H]1O[C@@H](COP(=O)(O)O)[C@H](O)[C@@H]1O)c[n+]2Cc1ccc(-c2ccccc2)cc1` gave a Kd of 300 nM. This Kd and that of the compound before are within 1.5-fold of each other.

For the compound `Nc1nc([O-])c2c(n1)n([C@H]1O[C@@H](COP(=O)(O)O)[C@H](O)[C@@H]1O)c[n+]2Cc1cccc(OCc2ccccc2)c1`, the Kd came to 580 nM.

Turning to `Nc1nc([O-])c2c(n1)n([C@H]1O[C@@H](COP(=O)(O)O)[C@H](O)[C@@H]1O)c[n+]2Cc1ccccc1CS(=O)(=O)c1ccccc1`, the Kd amounted to 30 nM. This Kd lies about 19-fold lower than the previous one.

Source of the values: ChEMBL document CHEMBL5727817, “3′ end caps, 5′ end caps and combinations thereof for therapeutic RNA” (2020).
